Laboratory results as given in patent publication US5502057A, “Polysubstituted pyridines useful for treating lipoproteinanaemia and arteriosclerosis” (Bayer Aktiengesellschaft, priority 1988, dated 1996).
Counter-ions that a name gives are not always drawn.

System: healthy beagle dogs
Assay: Subchronic action on blood cholesterol values of dogs (feeding experiment)
Assay type: in vivo, dog
Details: 8 mg/kg p.o. daily, after 2-week administration, cholestyramine (4 g/100 g of feed) in feed, compared with serum cholesterol before the administration period
Procedure: The subchronic action of the disubstituted pyridines on blood cholesterol values of dogs was tested in feeding experiments extending over several weeks. For this, the substance to be investigated was given p.o. once daily in a capsule to healthy beagle dogs together with the feed over a time period of several weeks. In addition, during the entire experimental period, i.e. before, during and after the administration period, the substance cholestyramine (4 g/100 g of feed) to be investigated was mixed with the feed as the […] sequestrant. Twice weekly, venous blood was taken from the dogs and the serum cholesterol was determined enzymatically. The serum cholesterol values during the administration period were compared with the serum cholesterol values before the administration period (controls).

## CC(C)c1nc(C(C)C)c(/C=C/C(O)CC(O)CC(=O)O)c(-c2ccc(F)cc2)c1/C=C/C(O)CC(O)CC(=O)O (stereo not shown) [Na salt of Example 8, 2,6-diisopropyl 4-(4-fluorophenyl)-3,5-di-(sodiumerythro-(E)-3,5-dihydroxy-hept-6-enoat-7-yl)-pyridine]
  Lowering of the serum cholesterol: about 22.4%
